Values quoted from earlier work in patent US20040033957A1, “FAP-activated anti-tumor prodrugs” (Boehringer Ingelheim Pharma GmbH & Co. KG, priority 2002, published 2004).
Where a SMILES comes first, the peptide text is derived from it. The star is where a group is joined. AFC = O=c1cc(C(F)(F)F)c2ccc(N*)cc2o1

Assays:
FAPα dimers = target: T1, FAPα dimers (Homo sapiens, UniProt Q12884); details: membrane overlay assay
T1 sequence (Q12884 1-760): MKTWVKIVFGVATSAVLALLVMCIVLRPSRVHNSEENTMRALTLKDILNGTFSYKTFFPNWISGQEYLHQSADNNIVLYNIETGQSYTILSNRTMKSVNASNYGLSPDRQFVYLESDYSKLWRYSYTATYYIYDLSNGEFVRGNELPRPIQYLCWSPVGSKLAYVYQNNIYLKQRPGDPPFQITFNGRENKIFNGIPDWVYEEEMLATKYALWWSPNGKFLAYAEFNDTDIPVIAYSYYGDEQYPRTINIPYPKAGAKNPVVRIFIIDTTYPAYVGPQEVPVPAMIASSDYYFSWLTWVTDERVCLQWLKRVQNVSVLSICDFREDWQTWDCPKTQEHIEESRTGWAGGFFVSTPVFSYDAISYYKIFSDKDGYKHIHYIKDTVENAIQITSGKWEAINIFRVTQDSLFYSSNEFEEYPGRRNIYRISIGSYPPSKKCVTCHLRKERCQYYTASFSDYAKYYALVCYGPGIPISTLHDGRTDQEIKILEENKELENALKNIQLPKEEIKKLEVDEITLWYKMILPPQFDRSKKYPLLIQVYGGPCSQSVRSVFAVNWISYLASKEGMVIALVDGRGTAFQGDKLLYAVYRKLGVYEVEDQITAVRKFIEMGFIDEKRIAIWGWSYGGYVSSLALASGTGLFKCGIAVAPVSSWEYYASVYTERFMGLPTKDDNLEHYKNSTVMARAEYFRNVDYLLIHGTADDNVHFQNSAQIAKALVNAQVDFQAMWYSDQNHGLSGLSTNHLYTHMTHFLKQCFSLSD

xenograft tumor = details: mouse xenograft tumor models
[1] = directly in the circulation, humans

Compound	cleavage by FAPα dimers (FAPα dimers)	efficacy as compared to doxorubicin (xenograft tumor)	fraction of the prodrug metabolized to free doxorubicin [1]	tolerability (humans)	myelosuppression (patients, correlated with AUC of released doxorubicin)
C[C@H](N)C(=O)N1CCC[C@H]1C(=O)Nc1ccc2c(C(F)(F)F)cc(=O)oc2c1 [Ala-Pro-7-amino-4-trifluoromethyl coumarin] (H-Ala-Pro-{AFC})	able to cleave	–	–	–	–
NCC(=O)N1CCC[C@H]1C(=O)Nc1ccc2c(C(F)(F)F)cc(=O)oc2c1 [Gly-Pro-7-amino-4-trifluoromethyl coumarin] (H-Gly-Pro-{AFC})	able to cleave	–	–	–	–
NCCCC[C@H](N)C(=O)N1CCC[C@H]1C(=O)Nc1ccc2c(C(F)(F)F)cc(=O)oc2c1 [Lys-Pro-7-amino-4-trifluoromethyl coumarin] (H-Lys-Pro-{AFC})	able to cleave	–	–	–	–
COc1cccc2c1C(=O)c1c(O)c3c(c(O)c1C2=O)C[C@@](O)(C(=O)CO)C[C@@H]3O[C@H]1C[C@H](NC(=O)[C@@H](N)CC(C)C)[C@H](O)[C@H](C)O1 [N-L-leucyl-doxorubicin]	–	improved efficacy	roughly half	comparably poor tolerability	Myelosuppression was seen
